Results: PubChem BioAssay (NCI)
Where “and” joins values, the source holds several entries; their conditions need not be identical. Equal entries are not always repeated.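 Test compounds were applied to cells in 96-well plates for 48 hours at 5 doses. GI50 marks 50% less growth. TGI denotes the concentration required for complete inhibition of growth.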

What was measured:
Test in all cases: NCI anticancer screen, dose series, 48 h; in the data active = GI50 below about 0.43 µM; inactive = the rest
MALME-3M melanoma = tested on: MALME-3M melanoma
LOX IMVI melanoma = tested on: LOX IMVI melanoma
SF-268 CNS = tested on: SF-268 CNS
HOP-92 NSCLC = tested on: HOP-92 NSCLC
NCI-H522 lung = tested on: NCI-H522 lung
SNB-75 CNS = tested on: SNB-75 CNS
U251 CNS = tested on: U251 CNS
PC-3 prostate = tested on: PC-3 prostate
DU-145 prostate = tested on: DU-145 prostate
786-0 renal = tested on: 786-0 renal
A549 NSCLC = tested on: A549 NSCLC
MDA-MB-231 breast = tested on: MDA-MB-231 breast
A498 renal = tested on: A498 renal
MDA-N = tested on: MDA-N
NCI-H226 lung = tested on: NCI-H226 lung
UO-31 renal = tested on: UO-31 renal
SF-539 CNS = tested on: SF-539 CNS
MDA-MB-435 = tested on: MDA-MB-435
EKVX NSCLC = tested on: EKVX NSCLC
CAKI-1 renal = tested on: CAKI-1 renal
RXF 393 renal = tested on: RXF 393 renal
SK-MEL-28 melanoma = tested on: SK-MEL-28 melanoma
MOLT-4 leukemia = tested on: MOLT-4 leukemia
UACC-62 melanoma = tested on: UACC-62 melanoma
NCI-H460 lung = tested on: NCI-H460 lung
SK-MEL-2 melanoma = tested on: SK-MEL-2 melanoma
OVCAR-4 ovarian = tested on: OVCAR-4 ovarian
T-47D breast = tested on: T-47D breast
KM12 colon = tested on: KM12 colon
NCI-H23 lung = tested on: NCI-H23 lung
UACC-257 melanoma = tested on: UACC-257 melanoma
MCF7 breast = tested on: MCF7 breast
HCC-2998 colon = tested on: HCC-2998 colon
M14 melanoma = tested on: M14 melanoma
HOP-62 NSCLC = tested on: HOP-62 NSCLC
OVCAR-5 ovarian = tested on: OVCAR-5 ovarian
SN12C renal = tested on: SN12C renal
HL-60(TB) leukemia = tested on: HL-60(TB) leukemia
NCI/ADR-RES ovarian = tested on: NCI/ADR-RES ovarian
BT-549 breast = tested on: BT-549 breast
SK-OV-3 ovarian = tested on: SK-OV-3 ovarian
SK-MEL-5 melanoma = tested on: SK-MEL-5 melanoma
SNB-19 CNS = tested on: SNB-19 CNS
SR leukemia = tested on: SR leukemia
K-562 leukemia = tested on: K-562 leukemia
TK-10 renal = tested on: TK-10 renal
COLO 205 colon = tested on: COLO 205 colon
CCRF-CEM leukemia = tested on: CCRF-CEM leukemia
HCT-15 colon = tested on: HCT-15 colon
ACHN renal = tested on: ACHN renal
OVCAR-3 ovarian = tested on: OVCAR-3 ovarian
SF-295 CNS = tested on: SF-295 CNS
SW-620 colon = tested on: SW-620 colon
HCT-116 colon = tested on: HCT-116 colon
RPMI-8226 leukemia = tested on: RPMI-8226 leukemia
IGROV1 ovarian = tested on: IGROV1 ovarian
OVCAR-8 ovarian = tested on: OVCAR-8 ovarian
HT29 colon = tested on: HT29 colon
HS 578T breast = tested on: HS 578T breast

CCCCCCCCCCC(O)C1CCC(C2CCC(C(O)CCCCC(O)CCCCCC(O)CC3=CC(C)OC3=O)O2)O1 (stereo not drawn)
7.33 µM and > 25 µM: TGI (SK-MEL-5 melanoma)
active: GI50 (LOX IMVI melanoma) 0.218 µM | GI50 (NCI-H23 lung) 0.0144 µM
9.65 µM and > 25 µM: TGI (OVCAR-3 ovarian)
9.15 µM and > 25 µM: TGI (COLO 205 colon)
7.79 µM and > 25 µM: TGI (ACHN renal)
> 25 µM: TGI (MALME-3M melanoma) | TGI (SF-268 CNS) | TGI (HOP-92 NSCLC) | TGI (NCI-H522 lung) | TGI (SNB-75 CNS) | TGI (U251 CNS) | TGI (PC-3 prostate) | TGI (DU-145 prostate) | TGI (786-0 renal) | TGI (A549 NSCLC) | TGI (MDA-MB-231 breast) | TGI (A498 renal) | TGI (MDA-N) | TGI (NCI-H226 lung) | TGI (SF-539 CNS) | TGI (EKVX NSCLC) | TGI (CAKI-1 renal) | TGI (RXF 393 renal) | TGI (SK-MEL-28 melanoma) | TGI (MOLT-4 leukemia) | TGI (NCI-H460 lung) | TGI (SK-MEL-2 melanoma) | TGI (OVCAR-4 ovarian) | TGI (T-47D breast) | TGI (KM12 colon) | TGI (NCI-H23 lung) | TGI (UACC-257 melanoma) | TGI (MCF7 breast) | TGI (HCC-2998 colon) | TGI (M14 melanoma) | TGI (HOP-62 NSCLC) | TGI (OVCAR-5 ovarian) | TGI (SN12C renal) | TGI (NCI/ADR-RES ovarian) | TGI (BT-549 breast) | TGI (SK-OV-3 ovarian) | TGI (SNB-19 CNS) | TGI (SR leukemia) | TGI (K-562 leukemia) | TGI (TK-10 renal) | TGI (CCRF-CEM leukemia) | TGI (HCT-15 colon) | TGI (SF-295 CNS) | TGI (SW-620 colon) | TGI (HCT-116 colon) | TGI (RPMI-8226 leukemia)
inactive: GI50 (SF-268 CNS) > 25 µM | GI50 (HOP-92 NSCLC) 3.87 µM | GI50 (SNB-75 CNS) > 25 µM | GI50 (U251 CNS) 5.65 µM | GI50 (PC-3 prostate) 2.79 µM | GI50 (DU-145 prostate) > 25 µM | GI50 (786-0 renal) 3.53 µM | GI50 (A549 NSCLC) 1.93 µM | GI50 (MDA-MB-231 breast) 4.82 µM | GI50 (A498 renal) 5.27 µM | GI50 (MDA-N) > 25 µM | GI50 (NCI-H226 lung) > 25 µM | GI50 (UO-31 renal) 1.74 µM | GI50 (MDA-MB-435) 1.51 µM | GI50 (EKVX NSCLC) > 25 µM | GI50 (SK-MEL-28 melanoma) 4.28 µM | GI50 (MOLT-4 leukemia) 2.57 µM | GI50 (UACC-62 melanoma) > 25 µM | GI50 (NCI-H460 lung) 10.7 µM | GI50 (SK-MEL-2 melanoma) 3.62 µM | GI50 (T-47D breast) 7.17 µM | GI50 (KM12 colon) > 25 µM | GI50 (UACC-257 melanoma) 0.452 µM | GI50 (MCF7 breast) 23.5 µM | GI50 (M14 melanoma) 3.76 µM | GI50 (HOP-62 NSCLC) 7.3 µM | GI50 (SN12C renal) > 25 µM | GI50 (HL-60(TB) leukemia) > 25 µM | GI50 (NCI/ADR-RES ovarian) > 25 µM | GI50 (SK-MEL-5 melanoma) 1.83 µM | GI50 (SNB-19 CNS) 1.41 µM | GI50 (K-562 leukemia) 1.81 µM | GI50 (TK-10 renal) 1.98 µM | GI50 (COLO 205 colon) 3.09 µM | GI50 (CCRF-CEM leukemia) 1.58 µM | GI50 (HCT-15 colon) 4.64 µM | GI50 (ACHN renal) 1.59 µM | GI50 (OVCAR-3 ovarian) 2.16 µM | GI50 (SF-295 CNS) 2 µM | GI50 (SW-620 colon) 3.93 µM | GI50 (HCT-116 colon) 1.04 µM | GI50 (RPMI-8226 leukemia) 2 µM
8.62 µM and > 25 µM: TGI (HL-60(TB) leukemia)
9.95 µM and > 25 µM: TGI (UO-31 renal)
2.6 µM and > 25 µM: TGI (LOX IMVI melanoma)
9.08 µM and > 25 µM: TGI (UACC-62 melanoma)
9.96 µM and > 25 µM: TGI (MDA-MB-435)

COc1ccc2c(c1)OCc1c-2oc2ccccc2c1=O
92.4 µM: TGI (SNB-75 CNS)
> 100 µM: TGI (MALME-3M melanoma) | TGI (LOX IMVI melanoma) | TGI (SF-268 CNS) | TGI (HOP-92 NSCLC) | TGI (NCI-H522 lung) | TGI (U251 CNS) | TGI (IGROV1 ovarian) | TGI (PC-3 prostate) | TGI (DU-145 prostate) | TGI (786-0 renal) | TGI (A549 NSCLC) | TGI (MDA-MB-231 breast) | TGI (A498 renal) | TGI (MDA-N) | TGI (OVCAR-8 ovarian) | TGI (NCI-H226 lung) | TGI (UO-31 renal) | TGI (SF-539 CNS) | TGI (MDA-MB-435) | TGI (EKVX NSCLC) | TGI (CAKI-1 renal) | TGI (MOLT-4 leukemia) | TGI (UACC-62 melanoma) | TGI (SK-MEL-2 melanoma) | TGI (KM12 colon) | TGI (UACC-257 melanoma) | TGI (MCF7 breast) | TGI (HCC-2998 colon) | TGI (M14 melanoma) | TGI (HOP-62 NSCLC) | TGI (OVCAR-5 ovarian) | TGI (SN12C renal) | TGI (NCI/ADR-RES ovarian) | TGI (BT-549 breast) | TGI (SK-OV-3 ovarian) | TGI (SK-MEL-5 melanoma) | TGI (SR leukemia) | TGI (K-562 leukemia) | TGI (TK-10 renal) | TGI (HT29 colon) | TGI (COLO 205 colon) | TGI (CCRF-CEM leukemia) | TGI (HCT-15 colon) | TGI (ACHN renal) | TGI (OVCAR-3 ovarian) | TGI (SF-295 CNS) | TGI (HCT-116 colon) | TGI (RPMI-8226 leukemia)

Cn1c(=O)c2c(nc(NCCCCl)n2CC(=O)NCCCCl)n(C)c1=O
> 100 µM: TGI (LOX IMVI melanoma) | TGI (SF-268 CNS) | TGI (HOP-92 NSCLC) | TGI (NCI-H522 lung) | TGI (SNB-75 CNS) | TGI (U251 CNS) | TGI (IGROV1 ovarian) | TGI (PC-3 prostate) | TGI (DU-145 prostate) | TGI (786-0 renal) | TGI (A549 NSCLC) | TGI (MDA-MB-231 breast) | TGI (HS 578T breast) | TGI (A498 renal) | TGI (MDA-N) | TGI (OVCAR-8 ovarian) | TGI (NCI-H226 lung) | TGI (UO-31 renal) | TGI (MDA-MB-435) | TGI (EKVX NSCLC) | TGI (CAKI-1 renal) | TGI (RXF 393 renal) | TGI (SK-MEL-28 melanoma) | TGI (MOLT-4 leukemia) | TGI (UACC-62 melanoma) | TGI (NCI-H460 lung) | TGI (SK-MEL-2 melanoma) | TGI (OVCAR-4 ovarian) | TGI (T-47D breast) | TGI (KM12 colon) | TGI (NCI-H23 lung) | TGI (UACC-257 melanoma) | TGI (HCC-2998 colon) | TGI (M14 melanoma) | TGI (HOP-62 NSCLC) | TGI (OVCAR-5 ovarian) | TGI (SN12C renal) | TGI (HL-60(TB) leukemia) | TGI (NCI/ADR-RES ovarian) | TGI (BT-549 breast) | TGI (SK-OV-3 ovarian) | TGI (SK-MEL-5 melanoma) | TGI (SNB-19 CNS) | TGI (K-562 leukemia) | TGI (TK-10 renal) | TGI (HT29 colon) | TGI (COLO 205 colon) | TGI (CCRF-CEM leukemia) | TGI (HCT-15 colon) | TGI (ACHN renal) | TGI (OVCAR-3 ovarian) | TGI (SF-295 CNS) | TGI (SW-620 colon) | TGI (HCT-116 colon) | TGI (RPMI-8226 leukemia)
